In US20240376099A1, “COMPOUNDS AND COMPOSITIONS AS INHIBITORS OF ENDOSOMAL TOLL-LIKE RECEPTORS” (Novartis AG, priority 2016, published 2024) one finds IC50 data, which are given here for 20 molecules.

By IC50 is commonly meant the concentration needed to halve the response being measured.

For the assay, the target named is T1, TLR9 (Homo sapiens, UniProt Q9NR96).
T1 construct: Fresh blood was collected from normal human donors; endogenous in cells; host or cells: human PBMCs from fresh donor blood
T1 sequence (Q9NR96 26-1032): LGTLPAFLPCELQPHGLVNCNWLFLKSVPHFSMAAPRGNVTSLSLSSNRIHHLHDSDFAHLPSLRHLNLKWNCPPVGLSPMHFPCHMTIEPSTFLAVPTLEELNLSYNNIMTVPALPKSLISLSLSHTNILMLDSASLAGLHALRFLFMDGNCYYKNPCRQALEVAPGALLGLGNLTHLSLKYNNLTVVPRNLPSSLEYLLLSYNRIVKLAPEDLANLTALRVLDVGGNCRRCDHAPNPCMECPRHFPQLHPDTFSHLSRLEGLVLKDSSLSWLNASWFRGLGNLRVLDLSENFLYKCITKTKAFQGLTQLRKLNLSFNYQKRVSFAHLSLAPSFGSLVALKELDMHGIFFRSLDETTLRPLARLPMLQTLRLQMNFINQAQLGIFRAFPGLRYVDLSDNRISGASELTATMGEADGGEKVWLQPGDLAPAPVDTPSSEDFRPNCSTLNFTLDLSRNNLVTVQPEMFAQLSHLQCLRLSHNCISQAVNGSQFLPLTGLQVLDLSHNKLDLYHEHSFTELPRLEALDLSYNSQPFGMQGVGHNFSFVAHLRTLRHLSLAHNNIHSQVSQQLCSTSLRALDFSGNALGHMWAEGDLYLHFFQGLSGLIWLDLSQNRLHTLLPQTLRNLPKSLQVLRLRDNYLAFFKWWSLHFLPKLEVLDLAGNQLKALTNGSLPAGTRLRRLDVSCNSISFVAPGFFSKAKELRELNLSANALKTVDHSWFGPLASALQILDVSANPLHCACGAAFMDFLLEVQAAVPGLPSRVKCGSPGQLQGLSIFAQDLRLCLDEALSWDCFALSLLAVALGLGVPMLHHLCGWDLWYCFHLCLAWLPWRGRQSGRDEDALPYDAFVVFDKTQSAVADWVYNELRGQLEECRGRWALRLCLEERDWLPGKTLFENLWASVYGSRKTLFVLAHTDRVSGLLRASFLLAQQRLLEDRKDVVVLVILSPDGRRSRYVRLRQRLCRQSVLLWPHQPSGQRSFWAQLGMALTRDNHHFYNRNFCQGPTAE
As to the kind of experiment: huPBMC TLR9 Antagonist IFNα Assay. The assay is classed as cell-based. The note with it: human PBMCs stimulated with ODN2216 0.3 μM, 14-16 hrs; IFNα2b AlphaLISA read-out. A digest of the protocol: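 Human PBMCs from fresh donor blood (150,000 cells/well) stimulated 14–16 h at 37 °C with DOTAP-complexed ssRNA40 (final 1 μg/ml for TLR8, 10 μg/mL for TLR7) or ODN2216 (final 0.3 μM, TLR9), 0.25% DMSO, ten-point 1/3 compound dilutions. Supernatant IL-6 read by HTRF (TLR8); IFNα by IFNα2b AlphaLISA (TLR7/TLR9).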
Background: In Alpha technology, singlet oxygen from a donor bead excites a nearby acceptor bead.
Take `Cc1nc(N2CCc3c(c(C)nn3CC34CCC(N5CCOCC5)(CC3)CC4)C2)c2c(n1)c(C)nn2C` [compound 25, 4-(4-((3-methyl-5-(1,3,5-trimethyl-1H-pyrazolo[4,3-d]pyrimidin-7-yl)-4,5,6,7-tetrahydro-1H-pyrazolo[4,3-c]pyridin-1-yl)methyl)bicyclo[2.2.2]octan-1-yl)morpholine]: the 50% inhibitory concentration (IC50) is above 8080 nM.

On to `Cc1cc(N2CCc3c(c(C)nn3CC34CCC(N5CCN(C)C(=O)C5)(CC3)CC4)C2)c2cnn(C)c2n1` [Compound No. 104, 4-(4-((5-(1,6-dimethyl-1H-pyrazolo[3,4-b]pyridin-4-yl)-3-methyl-4,5,6,7-tetrahydro-1H-pyrazolo[4,3-c]pyridin-1-yl)methyl)bicyclo[2.2.2]octan-1-yl)-1-methylpiperazin-2-one], for which the IC50 is above 10000 nM.

`Cc1cc(N2CCc3c(c(C)nn3CC34CCC(n5ccnc5)(CC3)CC4)C2)c2cnn(C)c2n1` [Compound No. 119, 1-((4-(1H-imidazol-1-yl)bicyclo[2.2.2]octan-1-yl)methyl)-5-(1,6-dimethyl-1H-pyrazolo[3,4-b]pyridin-4-yl)-3-methyl-4,5,6,7-tetrahydro-1H-pyrazolo[4,3-c]pyridine]: the IC50 is 608 nM.

Regarding `Cc1nc(N2CCc3c(c(C)nn3CC34CCC(NC(=O)[C@@H]5COCCN5)(CC3)CC4)C2)c2c(n1)c(C)nn2C` [compound 33, (S)-N-(4-((3-methyl-5-(1,3,5-trimethyl-1H-pyrazolo[4,3-d]pyrimidin-7-yl)-4,5,6,7-tetrahydro-1H-pyrazolo[4,3-c]pyridin-1-yl)methyl)bicyclo[2.2.2]octan-1-yl)morpholine-3-carboxamide], the half-inhibitory concentration (IC50) was above 10000 nM.

Consider `Cc1cc(N2CCc3c(c(C)nn3CC34CCC(N5C[C@H](C)O[C@@H](C)C5)(CC3)CC4)C2)c2cnn(C)c2n1` [compound 111, (2S,6S)-4-(4-((5-(1,6-dimethyl-1H-pyrazolo[3,4-b]pyridin-4-yl)-3-methyl-4,5,6,7-tetrahydro-1H-pyrazolo[4,3-c]pyridin-1-yl)methyl)bicyclo[2.2.2]octan-1-yl)-2,6-dimethylmorpholine], for which the half-inhibitory concentration (IC50) is 1410 nM.

Take `Cc1cc(N2CCc3c(c(C)nn3CC34CCC(NCC(C)(C)O)(CC3)CC4)C2)c2cnn(C)c2n1` [compound 123, 1-((4-((5-(1,6-dimethyl-1H-pyrazolo[3,4-b]pyridin-4-yl)-3-methyl-4,5,6,7-tetrahydro-1H-pyrazolo[4,3-c]pyridin-1-yl)methyl)bicyclo[2.2.2]octan-1-yl)amino)-2-methylpropan-2-ol]: the IC50 worked out at 2230 nM.

`COCCNC12CCC(Cn3nc(C)c4c3CCN(c3cc(C)nc5c3cnn5C)C4)(CC1)OC2` [compound 102, 1-((5-(1,6-dimethyl-1H-pyrazolo[3,4-b]pyridin-4-yl)-3-methyl-4,5,6,7-tetrahydro-1H-pyrazolo[4,3-c]pyridin-1-yl)methyl)-N-(2-methoxyethyl)-2-oxabicyclo[2.2.2]octan-4-amine]: the IC50 is 1240 nM.

For the molecule `Cc1nc(N2CCc3c(c(C)nn3CC34CCC(NC(=O)[C@H]5CNCCO5)(CC3)CC4)C2)c2c(n1)c(C)nn2C` [compound 36, (R)-N-(4-((3-methyl-5-(1,3,5-trimethyl-1H-pyrazolo[4,3-d]pyrimidin-7-yl)-4,5,6,7-tetrahydro-1H-pyrazolo[4,3-c]pyridin-1-yl)methyl)bicyclo[2.2.2]octan-1-yl)morpholine-2-carboxamide], the IC50 is 4970 nM.

As for `Cc1nc(N2CCc3c(c(C)nn3CC34CCC(N5CCOCC5)(CC3)CC4)C2)c2cnn(C)c2n1` [compound 19, 4-(4-((5-(1,6-dimethyl-1H-pyrazolo[3,4-d]pyrimidin-4-yl)-3-methyl-4,5,6,7-tetrahydro-1H-pyrazolo[4,3-c]pyridin-1-yl)methyl)bicyclo[2.2.2]octan-1-yl)morpholine], the IC50 was above 10000 nM.

As to `[2H]C([2H])([2H])N(C([2H])([2H])[2H])C12CCC(Cn3nc(C)c4c3CCN(c3nc(C)nc5c(C)nn(C)c35)C4)(CC1)CC2` [compound 40, 4-((3-methyl-5-(1,3,5-trimethyl-1H-pyrazolo[4,3-d]pyrimidin-7-yl)-4,5,6,7-tetrahydro-1H-pyrazolo[4,3-c]pyridin-1-yl)methyl)-N,N-bis(trideuteromethyl)bicyclo[2.2.2]octan-1-amine], the IC50 is 2520 nM.

Consider `Cc1c2c(nn1CC13CCC(N)(CC1)CC3)CCN(c1ccnc3[nH]ncc13)C2` [compound 42, 4-((3-methyl-5-(1H-pyrazolo[3,4-b]pyridin-4-yl)-4,5,6,7-tetrahydro-2H-pyrazolo[4,3-c]pyridin-2-yl)methyl)bicyclo[2.2.2]octan-1-amine], for which the 50% inhibitory concentration (IC50) was 472 nM.

On to `Cc1cc(N2CCc3c(c(C)nn3CC34CCC(N5CCOC[C@@H]5C)(CC3)CC4)C2)c2cnn(C)c2n1` [compound 128, (S)-4-(4-((5-(1,6-dimethyl-1H-pyrazolo[3,4-b]pyridin-4-yl)-3-methyl-4,5,6,7-tetrahydro-1H-pyrazolo[4,3-c]pyridin-1-yl)methyl)bicyclo[2.2.2]octan-1-yl)-3-methylmorpholine], for which the 50% inhibitory concentration (IC50) came to 792 nM.

Turning to `Cc1cc(N2CCc3c(c(C)nn3CC34CCC(NC5COC5)(CC3)CC4)C2)c2cnn(C)c2n1` [Compound No. 6, N-(4-((5-(1,6-dimethyl-1H-pyrazolo[3,4-b]pyridin-4-yl)-3-methyl-4,5,6,7-tetrahydro-1H-pyrazolo[4,3-c]pyridin-1-yl)methyl)bicyclo[2.2.2]octan-1-yl)oxetan-3-amine], the IC50 is 1390 nM.

Turning to `COCCNC12CCC(Cn3nc(C)c4c3CCN(c3ccnc(-c5ccccc5)c3)C4)(CC1)CC2` [compound 130, N-(2-methoxyethyl)-4-((3-methyl-5-(2-phenylpyridin-4-yl)-4,5,6,7-tetrahydro-1H-pyrazolo[4,3-c]pyridin-1-yl)methyl)bicyclo[2.2.2]octan-1-amine], the IC50 is 672 nM.

With `Cc1nc(N2CCc3c(c(C)nn3CC34CCC(NC5CCC5)(CC3)CC4)C2)c2c(n1)c(C)nn2C` [compound 27, N-cyclobutyl-4-((3-methyl-5-(1,3,5-trimethyl-1H-pyrazolo[4,3-d]pyrimidin-7-yl)-4,5,6,7-tetrahydro-1H-pyrazolo[4,3-c]pyridin-1-yl)methyl)bicyclo[2.2.2]octan-1-amine], the half-maximal inhibitory concentration (IC50) is above 10000 nM.

As to `Cc1nn(CC23CCC(N)(CC2)CC3)c2c1CN(c1nc(Cl)nc3cnn(C)c13)CC2` [compound 15, 4-((5-(5-chloro-1-methyl-1H-pyrazolo[4,3-d]pyrimidin-7-yl)-3-mehtyl-4,5,6,7-tetrahydro-1H-pyrazolo[4,3-c]pyridin-1-yl)methyl)bicyclo[2.2.2]octan-1-amine], the IC50 is 1270 nM.

For `Cc1cc(N2CCc3c(c(C)nn3CC34CCC(NC(=O)CN5CC(F)C5)(CC3)CC4)C2)c2cnn(C)c2n1` [Compound No. 133, N-(4-((5-(1,6-dimethyl-1H-pyrazolo[3,4-b]pyridin-4-yl)-3-methyl-4,5,6,7-tetrahydro-1H-pyrazolo[4,3-c]pyridin-1-yl)methyl)bicyclo[2.2.2]octan-1-yl)-2-(3-fluoroazetidin-1-yl)acetamide], the concentration for half-maximal inhibition (IC50) was 1140 nM.

On to `Cc1cc(N2CCc3c(c(C)nn3CC34CCC(NC(=O)CN5CC(O)C5)(CC3)CC4)C2)c2cnn(C)c2n1` [Compound No. 136, N-(4-((5-(1,6-dimethyl-1H-pyrazolo[3,4-b]pyridin-4-yl)-3-methyl-4,5,6,7-tetrahydro-1H-pyrazolo[4,3-c]pyridin-1-yl)methyl)bicyclo[2.2.2]octan-1-yl)-2-(3-hydroxyazetidin-1-yl)acetamide], for which the IC50 was 1170 nM.

For `CN[C@@H](C)C(=O)NC12CCC(Cn3nc(C)c4c3CCN(c3cc(C)nc5c3cnn5C)C4)(CC1)CC2` [compound 118], the IC50 was determined as 775 nM.

For `Cc1cc(N2CCc3c(c(C(F)(F)F)nn3CC34CCC(N)(CC3)CC4)C2)c2cnn(C)c2n1` [compound 45, 4-((5-(1,6-dimethyl-1H-pyrazolo[3,4-b]pyridin-4-yl)-3-(trifluoromethyl)-4,5,6,7-tetrahydro-1H-pyrazolo[4,3-c]pyridin-1-yl)methyl)bicyclo[2.2.2]octan-1-amine], the 50% inhibitory concentration (IC50) worked out at 2060 nM.
